PMC4965013, “Open Source Drug Discovery with the Malaria Box Compound Collection for Neglected Diseases and Beyond” (PLoS Pathogens, 2016)

Tests used:
P. falciparum = assay: EC50 listed in S2 Table Metabolomics (used to set the concentration tested); assay type: cell-based; settings: Plasmodium falciparum; EC50 used for Factor_XEC50 in metabolomics; read-out: EC50_nM
[1] = tested on: P. falciparum 3D7 trophozoites; assay: Metabolomic fingerprint profiling LC-MS; assay type: cell-based, Plasmodium falciparum; design: UDP-D-glucose / ADP-D-glucose: unit not given here
[2] = metabolite level change after treatment

EC50 (P. falciparum): 154 nM
Structure (SMILES): CCOC(=O)C1=C(c2ccccc2)N=c2sc(=Cc3cc(C)n(-c4ccc(F)cc4)c3C)c(=O)n2C1c1cccc(OC)c1OC (centres unmarked) [MMV666601]
Acetyllysine ([1]; S2 Table Metabolomics, metabolite Acetyllysine): -0.456
N-acetyl-L-ornithine ([1]; S2 Table Metabolomics, metabolite N-acetyl-L-ornithine): -0.1781
N-carbamoyl-L-aspartate ([1]; S2 Table Metabolomics, metabolite N-carbamoyl-L-aspartate): 0.03088
NADPH ([1]; S2 Table Metabolomics, metabolite NADPH): 0.275
dAMP ([1]; S2 Table Metabolomics, metabolite dAMP): -0.2186
dCMP ([1]; S2 Table Metabolomics, metabolite dCMP): 0.01598
dTDP ([1]; S2 Table Metabolomics, metabolite dTDP): -0.2912
dTMP ([1]; S2 Table Metabolomics, metabolite dTMP): -0.2825
dTTP ([1]; S2 Table Metabolomics, metabolite dTTP): -0.02615
dihydroorotate ([1]; S2 Table Metabolomics, metabolite dihydroorotate): 0.05127
orotate ([1]; S2 Table Metabolomics, metabolite orotate): -0.2921
DLH ([1]; S2 Table Metabolomics, peptide DLH): -0.04885
DLS/SDL/SID ([1]; S2 Table Metabolomics, peptide DLS/SDL/SID): -0.07047
PD ([1]; S2 Table Metabolomics, peptide PD): -0.02012
PEE ([1]; S2 Table Metabolomics, peptide PEE): -0.1327
PVNF ([1]; S2 Table Metabolomics, peptide PVNF): -0.1227
3-phosphoglycerate ([1]; metabolite 3-phosphoglycerate, S2 Table Metabolomics): 0.04151
ADP-D-glucose ([1]; metabolite ADP-D-glucose, S2 Table Metabolomics): -0.1367
ATP ([1]; metabolite ATP, S2 Table Metabolomics): 0.1113
CDP ([1]; metabolite CDP, S2 Table Metabolomics, change in metabolite level after compound treatment): -0.2732
D-sedoheptulose-1/7-phosphate ([1]; metabolite D-sedoheptulose-1/7-phosphate, S2 Table Metabolomics, change in metabolite level after compound treatment): -0.3701
FAD ([1]; metabolite FAD, S2 Table Metabolomics): 0.009316
GMP ([1]; metabolite GMP, S2 Table Metabolomics, change in metabolite level after compound treatment): 0.1751
NAD+ ([1]; metabolite NAD+, S2 Table Metabolomics): 0.04978
NADP+ ([1]; metabolite NADP+, S2 Table Metabolomics): -0.07076
Octoluse Bisphosphate ([1]; metabolite Octoluse Bisphosphate, S2 Table Metabolomics, change in metabolite level after compound treatment): -0.0546
Pyroglutamic acid ([1]; metabolite Pyroglutamic acid, S2 Table Metabolomics): 0.2145
UDP-D-glucose ([1]; metabolite UDP-D-glucose, S2 Table Metabolomics): -0.01836
UDP-D-glucuronate ([1]; metabolite UDP-D-glucuronate, S2 Table Metabolomics): -0.09865
UDP-N-acetyl-glucosamine ([1]; metabolite UDP-N-acetyl-glucosamine, S2 Table Metabolomics): -0.01529
UDP ([1]; metabolite UDP, S2 Table Metabolomics, change in metabolite level after compound treatment): -0.3315
UMP ([1]; metabolite UMP, S2 Table Metabolomics, change in metabolite level after compound treatment): 0.1049
UTP ([1]; metabolite UTP, S2 Table Metabolomics, change in metabolite level after compound treatment): 0.1938
a-ketoglutarate ([1]; metabolite a-ketoglutarate, S2 Table Metabolomics): 0.0362
citrate/isocitrate ([1]; metabolite citrate/isocitrate, S2 Table Metabolomics, change in metabolite level after compound treatment): 0.4989
cytidine ([1]; metabolite cytidine, S2 Table Metabolomics): 0.1663
dATP ([1]; metabolite dATP, S2 Table Metabolomics): 0.2724
dGMP/AMP ([1]; metabolite dGMP/AMP, S2 Table Metabolomics, change in metabolite level after compound treatment): -0.3927
fumarate ([1]; metabolite fumarate, S2 Table Metabolomics, change in metabolite level after compound treatment): -0.02339
glucose-1/6-phosphate ([1]; metabolite glucose-1/6-phosphate, S2 Table Metabolomics, change in metabolite level after compound treatment): -0.02704
glycerate ([1]; metabolite glycerate, S2 Table Metabolomics, change in metabolite level after compound treatment): 0.006669
guanine ([1]; metabolite guanine, S2 Table Metabolomics, change in metabolite level after compound treatment): -0.1817
guanosine ([1]; metabolite guanosine, S2 Table Metabolomics, change in metabolite level after compound treatment): -0.06753
hypoxanthine ([1]; metabolite hypoxanthine, S2 Table Metabolomics): 0.09643
indole ([1]; metabolite indole, S2 Table Metabolomics): 0.007804
inosine ([1]; metabolite inosine, S2 Table Metabolomics, change in metabolite level after compound treatment): 0
2_3-Diphosphoglyceric acid [1, 2]: -0.2012
4-phosphopantothenate [1, 2]: -0.1061
6-phospho-D-gluconate [1, 2]: 0.004224
FMN [1, 2]: -0.01347
IMP [1, 2]: -0.1927
Pyrophosphate [1, 2]: -0.04369
Sedoheptoluse bisphosphate [1, 2]: -0.08738
cyclic-AMP [1, 2]: 0.1818
glutathione disulfide [1, 2]: -0.01346
lactate [1, 2]: -0.02544
myo-inositol [1, 2]: -0.1142
nicotinate ([1]; metabolite nicotinate, S2 Table Metabolomics): 0.07511
ornithine ([1]; metabolite ornithine, S2 Table Metabolomics): -0.266
phosphoenolpyruvate ([1]; metabolite phosphoenolpyruvate, S2 Table Metabolomics): -0.02402
pyruvate ([1]; metabolite pyruvate, S2 Table Metabolomics, change in metabolite level after compound treatment): -0.028
ribose-phosphate ([1]; metabolite ribose-phosphate, S2 Table Metabolomics): 0.1121
sarcosine/alanine ([1]; metabolite sarcosine/alanine, S2 Table Metabolomics, change in metabolite level after compound treatment): -0.3168
sn-glycerol-3-phosphate ([1]; metabolite sn-glycerol-3-phosphate, S2 Table Metabolomics): -0.06233
succinate/methylmalonic acid ([1]; metabolite succinate/methylmalonic acid, S2 Table Metabolomics, change in metabolite level after compound treatment): 0.1961
uridine ([1]; metabolite uridine, S2 Table Metabolomics, change in metabolite level after compound treatment): -0.1775
xanthosine ([1]; metabolite xanthosine, S2 Table Metabolomics, change in metabolite level after compound treatment): 0.2404
